IC50 data for 93 molecules are collected here from the Kinase Knowledgebase extract (Sharma et al. 2016).

Several values for one entry are separate records, joined by “and”; a condition that tells them apart may be missing. Equal values may be shown once. Some results are limits rather than exact numbers.

The target of this assay is MAPK14 (human) (UniProt Q16539). Nature of the assay: Inhibition of MAPK14 Kinase Activity. Conditions: THP.1 monocytic.
Chain of MAPK14 (human) (Q16539 whole entry, looked up): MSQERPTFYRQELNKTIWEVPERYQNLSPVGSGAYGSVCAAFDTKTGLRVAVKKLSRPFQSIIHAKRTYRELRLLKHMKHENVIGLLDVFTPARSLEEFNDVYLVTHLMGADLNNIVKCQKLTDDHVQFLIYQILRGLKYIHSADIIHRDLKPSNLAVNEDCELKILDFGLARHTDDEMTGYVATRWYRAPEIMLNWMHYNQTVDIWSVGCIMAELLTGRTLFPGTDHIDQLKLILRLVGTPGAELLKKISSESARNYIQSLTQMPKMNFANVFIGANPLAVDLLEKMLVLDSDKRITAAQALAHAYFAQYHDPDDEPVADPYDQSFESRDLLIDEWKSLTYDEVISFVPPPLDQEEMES
Regarding `COC(=O)CCn1ccc(OCc2ccccc2)c(Br)c1=O`, the IC50 lay in the range of 1000 to 25000 nM.
The molecule `Cc1ccc(CO)cc1-n1c(C)cc(OCc2ccc(F)cc2F)c(Br)c1=O` registered an IC50 of less than 1000 nM.
With `Cc1cc(OCc2ccc(F)cc2F)c(Cl)c(=O)n1-c1cc(CN)ccc1F` the figure was less than 1000 nM.
Under `O=c1c(Br)c(OCc2ccccc2)ccn1Cc1ccccc1F` stands less than 1000 nM; under `Cc1cc(OCc2ccc(F)cc2F)c(Br)c(=O)n1Cc1cnc(CN(C)C)cn1`, 1000 to 25000 nM.
`Cc1cc(OCc2ccc(F)cc2F)c(Cl)c(=O)n1-c1c(F)cccc1F` showed an IC50 of less than 1000 nM.
Take `Cc1cc(OCc2ccc(F)cc2F)c(Br)c(=O)n1Cc1cccc(CNC(N)=O)c1`: the IC50 was in the range of 1000 to 25000 nM.
With `CNC(=O)NCc1cccc(-n2c(C)cc(OCc3ccc(F)cc3F)c(Br)c2=O)c1` the figure was 1000 to 25000 nM.
`O=C(Nc1ccn(Cc2cccc(F)c2)c(=O)c1Br)c1c(F)cccc1F` came in with an IC50 of 1000 to 25000 nM.
`O=c1cc(OCc2cccc(Cl)c2)ccn1Cc1ccccc1` registered an IC50 of 25000 to 100000 nM.
Take `Cc1cc(OCc2ccc(F)cc2F)c(Br)c(=O)n1Cc1ccc(C(=O)NC(C)C)cc1`: the IC50 is less than 1000 nM.
With `CCOC(=O)c1cccc(-n2c(C)cc(OCc3ccc(F)cc3F)c(Br)c2=O)c1`, the IC50 was less than 1000 nM.
The molecule `COCCNCc1cc(OCc2ccc(F)cc2F)c(Br)c(=O)n1-c1c(F)cccc1F` gave a half-maximal inhibitory concentration (IC50) of less than 1000 nM.
`N#Cc1ccc(Cn2ccc(OCc3ccccc3)c(Br)c2=O)cc1` registered an IC50 of less than 1000 nM.
Under `Cc1c(Br)c(OCc2ccccc2)c(Br)c(=O)n1Cc1ccccc1` stands 25000 to 100000 nM.
Take `C=CCNc1c(I)c(C)n(-c2c(F)cccc2F)c(=O)c1Br`: the IC50 fell in the range of 1000 to 25000 nM.
Consider `Cc1cc(OCc2ccc(F)cc2F)c(Br)c(=O)n1Cc1ccc(C(=O)N(CCO)CCO)cc1`, for which the IC50 was less than 1000 nM.
Take `O=c1c(Br)c(NCc2cccc(C(F)(F)F)c2)ccn1Cc1cccc(F)c1`: the IC50 is 1000 to 25000 nM.
With `Cc1cc(OCc2ccc(F)cc2F)c(Br)c(=O)n1-c1c(F)cc(N(C)CCO)cc1F` the figure was less than 1000 nM; with `Cc1cc(OCc2ccc(F)cc2F)c(Br)c(=O)n1-c1cc(CO)ccc1F`, 1000 to 25000 nM.
`Cc1cc(OCc2ccc(F)cc2F)c(Br)c(=O)n1Cc1cccc(CN)c1`: the IC50 was less than 1000 nM.
`Cc1cc(OCc2ccc(F)cc2F)c(Br)c(=O)n1Cc1cccc(CNS(C)(=O)=O)c1` showed an IC50 of less than 1000 nM.
Regarding `Cc1cnc(Cn2c(C)cc(OCc3ccc(F)cc3F)c(Br)c2=O)cn1`, the IC50 was less than 1000 nM.
Consider `Cc1cc(OCc2ccc(F)cc2F)c(Br)c(=O)n1Cc1cccc(CNC(=O)CO)c1`, for which the half-inhibitory concentration (IC50) was less than 1000 nM.
In turn, `O=c1c(Br)c(OCc2ccccc2)ccn1CC1CCNCC1` returned an IC50 of 25000 to 100000 nM.
`Cc1cc(OCc2ccc(F)cc2F)c(Br)c(=O)n1Cc1ccccc1C#N`: the IC50 lay within 1000 to 25000 nM.
With `CCOC(=O)c1ccc(-n2c(C)cc(OCc3ccc(F)cc3F)c(Br)c2=O)nc1` the figure was 25000 to 100000 nM; with `COCC(=O)NCc1cccc(-n2c(C)cc(OCc3ccc(F)cc3F)c(Br)c2=O)c1`, 1000 to 25000 nM; with `COCCN(C)C(=O)c1ccc(Cn2c(C)cc(OCc3ccc(F)cc3F)c(Br)c2=O)cc1`, less than 1000 nM.
Turning to `O=c1c(Cl)c(OCc2ccc(F)cc2F)cc(CO)n1-c1c(F)cc(F)cc1F`, the IC50 was less than 1000 nM.
Consider `NCc1ccccc1Cn1ccc(OCc2ccccc2)c(Br)c1=O`, for which the concentration for half-maximal inhibition (IC50) lay in the range of 1000 to 25000 nM.
`Cc1cc(OCc2ccc(F)cc2F)c(Br)c(=O)n1Cc1ccc(S(=O)(=O)N(C)C)cc1` gave an IC50 of less than 1000 nM.
With `Cc1ccc(C(C)(C)O)cc1-n1c(C)cc(OCc2ccc(F)cc2F)c(Br)c1=O` the figure was less than 1000 nM; with `CC(C)(C)c1ccc(COc2ccn(Cc3cccc(F)c3)c(=O)c2Br)cc1`, more than 100000 nM.
The molecule `Cc1c(C2CO2)c(OCc2ccc(F)cc2F)c(Br)c(=O)n1-c1c(F)cccc1F` (stereo not drawn) showed an IC50 of 25000 to 100000 nM.
Under `Cc1ncc(Cn2c(C)cc(OCc3ccc(F)cc3F)c(Cl)c2=O)c(N)n1` stands 1000 to 25000 nM.
As to `Cc1cc(OCc2ccc(F)cc2F)c(Br)c(=O)n1CCN1CCOCC1`, the IC50 is 25000 to 100000 nM.
Under `Cc1cc(OCc2ccc(F)cc2F)c(Cl)c(=O)n1-c1c(F)cc(N2CCN(C)CC2)cc1F` stands less than 1000 nM; under `Cc1ccc(CNC(C)C)cc1-n1c(C)cc(OCc2ccc(F)cc2F)c(Br)c1=O`, 1000 to 25000 nM.
`COCCNC(=O)c1cccc(-n2c(C)cc(OCc3ccc(F)cc3F)c(Br)c2=O)c1`: the half-maximal inhibitory concentration (IC50) was less than 1000 nM.
`CNC(=O)c1ccc(-n2c(C)cc(OCc3ccc(F)cc3F)c(Br)c2=O)cc1` registered an IC50 of more than 100000 nM.
Molecule `Cc1cc(OCc2ccc(F)cc2F)c(Cl)c(=O)n1-c1cccc(CO)c1` came in with an IC50 of 1000 to 25000 nM.
Take `O=c1cc(OCc2ccccc2Cl)ccn1Cc1ccccc1`: the IC50 was in the range of 25000 to 100000 nM.
Take `O=c1c(Br)c(CCc2ccccc2)ccn1Cc1cccc(F)c1`: the IC50 lay within 1000 to 25000 nM.
In turn, `NC(=O)c1ccccc1Cn1ccc(OCc2ccccc2)c(Br)c1=O` gave an IC50 of 1000 to 25000 nM.
`Cc1cc(OCc2ccc(F)cc2F)c(Br)c(=O)n1-c1cccc(C(=O)NCCO)c1` yielded an IC50 of less than 1000 nM.
As to `O=c1c(Br)c(OCc2ccc(C(F)(F)F)cc2)ccn1Cc1cccc(F)c1`, the IC50 lay in the range of 1000 to 25000 nM.
Molecule `O=C(c1ccc(-n2ccc(OCc3ccccc3)c(Br)c2=O)cc1)N1CCOCC1` showed an IC50 of 1000 to 25000 nM.
`Cc1cccc(C)c1-n1c(C)cc(OCc2ccc(F)cc2F)c(Br)c1=O`: the IC50 was less than 1000 nM.
`CNC(=O)c1ccc(C)c(-n2c(C)cc(OCc3ccc(F)cc3F)c(Cl)c2=O)c1` returned an IC50 of less than 1000 nM.
With `Cc1cc(OCc2ccc(F)cc2F)c(Cl)c(=O)n1-c1c(F)cc(F)cc1F`, the IC50 was less than 1000 nM.
Regarding `Cc1ccc(C(N)=O)cc1-n1c(C)cc(OCc2ccc(F)cc2F)c(Cl)c1=O`, the half-maximal inhibitory concentration (IC50) is less than 1000 nM.
`Cc1cc(OCc2ccc(F)cc2F)c(Br)c(=O)n1-c1cc(C(N)=O)ccc1F` showed an IC50 of less than 1000 nM.
With `Cc1cc(OCc2ccc(F)cc2F)c(Br)c(=O)n1-c1cccc(C(=O)NC(C)C)c1` the figure was less than 1000 nM.
`O=c1c(Br)c(NCc2ccc(Cl)cc2F)ccn1Cc1cccc(F)c1` returned an IC50 of 1000 to 25000 nM.
Molecule `Cc1cc(OCc2ccc(F)cc2F)c(Br)c(=O)n1-c1ccc(C(=O)NO)cc1` had an IC50 of more than 100000 nM.
With `Cc1cc(OCc2ccc(F)cc2F)c(Br)c(=O)n1-c1cccc(C(N)=O)c1` the figure was less than 1000 nM; with `Cc1c(C=NO)c(OCc2ccc(F)cc2F)c(Br)c(=O)n1-c1c(F)cccc1F`, 25000 to 100000 nM; with `N#Cc1ccccc1Cn1ccc(OCc2ccccc2)c(Br)c1=O`, 1000 to 25000 nM.
With `C=CCn1c(C)cc(OCc2ccc(F)cc2F)c(Br)c1=O`, the IC50 is less than 1000 nM.
The molecule `Cc1cc(OCc2ccc(F)cc2F)c(Cl)c(=O)n1-c1cccc(C(=O)O)c1` registered an IC50 of 1000 to 25000 nM.
As for `O=c1c(Br)c(OCc2ccccc2)ccn1Cc1cccc(F)c1`, the IC50 is less than 1000 nM.
Under `O=c1cc(OCc2ccccc2)ccn1Cc1ccc(Br)cc1` stands more than 100000 nM.
Consider `Cc1cc(OCc2ccc(F)cc2F)c(Br)c(=O)n1-c1ccc(C(=O)NCCN)cc1`, for which the IC50 is less than 1000 nM.
As to `Cc1cc(OCc2ccc(F)cc2F)c(Br)c(=O)n1-c1ccc(C(C)(C)O)cn1`, the IC50 is more than 100000 nM.
`O=c1c(Br)c(NCc2cccc(F)c2)ccn1Cc1cccc(F)c1` gave an IC50 of 1000 to 25000 nM.
In the case of `Cc1cc(OCc2ccccc2)cc(=O)n1Cc1ccccc1`, the IC50 lay within 25000 to 100000 nM.
`COC(=O)NCc1cccc(-n2c(C)cc(OCc3ccc(F)cc3F)c(Br)c2=O)c1` yielded an IC50 of 1000 to 25000 nM.
Under `Cc1cc(OCc2ccc(F)cc2F)c(Br)c(=O)n1Cc1ccccc1CN` stands 1000 to 25000 nM.
For `O=C(Nc1ccn(Cc2cccc(F)c2)c(=O)c1Br)c1ccc(F)cc1`, the IC50 lay in the range of 1000 to 25000 nM.
With `Cc1cnc(Cn2c(C)cc(OCc3ccc(F)cc3F)c(Cl)c2=O)cn1` the figure was less than 1000 nM; with `Cc1cc(OCc2ccc(F)cc2F)c(Br)c(=O)n1Cc1ccc(C(=O)NO)cc1`, < 1000 nM and 1000 to 25000 nM.
Molecule `Cc1cc(OCc2ccc(F)cc2F)c(Br)c(=O)n1-c1c(F)cc(N2CCN(C)CC2)cc1F` registered an IC50 of less than 1000 nM.
In the case of `Cc1cc(OCc2ccc(F)cc2F)c(Br)c(=O)n1-c1cccc(C(=O)N(C)C)c1`, the IC50 was less than 1000 nM.
Take `Cc1cc(OCc2ccc(F)cc2F)c(Br)c(=O)n1-c1cccc(CNS(C)(=O)=O)c1`: the 50% inhibitory concentration (IC50) fell in the range of 1000 to 25000 nM.
Molecule `CC(=O)NCc1cccc(-n2c(C)cc(OCc3ccc(F)cc3F)c(Br)c2=O)c1` gave an IC50 of 1000 to 25000 nM.
Molecule `O=c1c(C(F)(F)F)c(OCc2ccccc2)ccn1Cc1cccc(F)c1` gave an IC50 of 25000 to 100000 nM.
The molecule `CN(C)Cc1cc(OCc2ccc(F)cc2F)c(Br)c(=O)n1-c1c(F)cccc1F` returned an IC50 of less than 1000 nM.
Regarding `Cc1cc(OCc2ccc(F)cc2F)c(Br)c(=O)n1-c1cccc(CNC(N)=O)c1`, the IC50 was 1000 to 25000 nM.
`O=C(O)c1cc(OCc2ccc(F)cc2F)c(Br)c(=O)n1-c1c(F)cccc1F`: the IC50 lay in the range of 1000 to 25000 nM.
Regarding `Cc1cc(OCc2ccc(F)cc2F)c(Br)c(=O)n1-c1c(F)c(Br)c(O)c(Br)c1F`, the IC50 fell in the range of 1000 to 25000 nM.
Under `Cc1cc(OCc2ccc(F)cc2F)c(Br)c(=O)n1Cc1cccc(CN2CCCCC2)c1` stands less than 1000 nM.
In turn, `CCOC(=O)c1cnc(Cn2c(C)cc(OCc3ccc(F)cc3F)c(Cl)c2=O)cn1` showed an IC50 of less than 1000 nM.
As to `O=c1c(Br)c(OCc2ccccc2)c(Br)cn1Cc1ccccc1`, the IC50 was more than 100000 nM.
Under `Cc1c(C=O)c(OCc2ccc(F)cc2F)c(Br)c(=O)n1-c1c(F)cccc1F` stands 25000 to 100000 nM.
In the case of `Cc1cc(OCc2ccc(F)cc2F)c(Br)c(=O)n1-c1cccc(CNC(=O)N(C)C)c1`, the IC50 is 1000 to 25000 nM.
Take `Cc1cc(OCc2ccc(F)cc2F)c(Br)c(=O)n1-c1ccccc1C(F)(F)F`: the IC50 is less than 1000 nM.
With `Cc1ccc(C(=O)NCCO)cc1-n1c(C)cc(OCc2ccc(F)cc2F)c(Br)c1=O` the figure was less than 1000 nM; with `Cn1ccc(OCc2ccccc2)c(Br)c1=O`, 1000 to 25000 nM.
`C#Cc1c(OCc2ccccc2)ccn(Cc2cccc(F)c2)c1=O`: the IC50 was in the range of 1000 to 25000 nM.
In the case of `CC(=O)OCC(=O)NCc1cccc(-n2c(C)cc(OCc3ccc(F)cc3F)c(Br)c2=O)c1`, the IC50 lay within 1000 to 25000 nM.
As for `O=c1c(Br)c(OCc2ccccc2-c2ccccc2)ccn1Cc1cccc(F)c1`, the IC50 was more than 100000 nM.
In turn, `Cc1cc(OCc2ccc(F)cc2F)c(Br)c(=O)n1Cc1cccc(CN2CCOCC2)c1` registered an IC50 of less than 1000 nM.

The term IC50 denotes the midpoint of a concentration-inhibition curve.
